Results reported in patent US11639353B2, “Cyclobutanes- and azetidine-containing mono and spirocyclic compounds as αV integrin inhibitors” (BRISTOL-MYERS SQUIBB COMPANY, priority 2016, dated 2023).

What was measured:
Settings in all cases: alternatively SPA-based assay
[1] = target: human αVβ3 (Homo sapiens, UniProt P05106+P06756); assay: human αVβ3 HTRF binding assay
Method: (§1) All binding assays used the HTRF (homogeneous time resolved fluorescence) technology from Cisbio International, therefore all assays are described as HTRF binding assays. The assay results for the Examples are listed above together with the characterization data. The HTRF binding assays are established for the following integrins: human αVβ6, human αVβ1, human αVβ3, human αVβ5, and human αVβ8. All assays used the following assay buffer: 20 mM Tris, pH 7.4, 1 mM MgCl2, 1 mM MnCl2, 0.01% Tween 20, and 0.01% BSA. Alternatively, a SPA-based assay was used for evaluation of receptor binding.
(§2) The SPA-based assay was carried out according to the protocol and procedures similar to the ones described in the following reference with appropriate modifications to agents and ligands which are readily understood by one skilled in the art: Pachter J A, Zhang R, Mayer-Ezell R., “Scintillation proximity assay to measure binding of soluble fibronectin to antibody-captured αVβ1 integrin” Anal Biochem. 1995 Sep. 1; 230(1):101-7.

[2] = target: human αVβ8 (Homo sapiens, UniProt P06756+P26012); assay: human αVβ8 HTRF binding assay
Method: as §1, §2

[3] = target: T1, human αVβ6 (Homo sapiens, UniProt P06756+P18564); assay: human αVβ6 HTRF binding assay
T1 construct: purchased R & D systems 3817-AV
Method in brief: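 Biotinylated recombinant human αVβ6 (1.25 nM final) incubated with FITC-fibronectin (5 nM final) 1 h at RT, then streptavidin-terbium (0.625 nM final) added and left overnight at RT in the dark before HTRF reading. Buffer: 20 mM Tris pH 7.4, 1 mM MgCl2, 1 mM MnCl2, 0.01% Tween 20, 0.01% BSA.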

[4] = target: human αVβ1 (Homo sapiens, UniProt P05556+P06756); assay: human αVβ1 HTRF binding assay
Method: as §1, §2

[5] = target: human αVβ5 (Homo sapiens, UniProt P06756+P18084); assay: human αVβ5 HTRF binding assay
Method: as §1, §2

Chain of human αVβ5 (P06756 31-992 limits assumed): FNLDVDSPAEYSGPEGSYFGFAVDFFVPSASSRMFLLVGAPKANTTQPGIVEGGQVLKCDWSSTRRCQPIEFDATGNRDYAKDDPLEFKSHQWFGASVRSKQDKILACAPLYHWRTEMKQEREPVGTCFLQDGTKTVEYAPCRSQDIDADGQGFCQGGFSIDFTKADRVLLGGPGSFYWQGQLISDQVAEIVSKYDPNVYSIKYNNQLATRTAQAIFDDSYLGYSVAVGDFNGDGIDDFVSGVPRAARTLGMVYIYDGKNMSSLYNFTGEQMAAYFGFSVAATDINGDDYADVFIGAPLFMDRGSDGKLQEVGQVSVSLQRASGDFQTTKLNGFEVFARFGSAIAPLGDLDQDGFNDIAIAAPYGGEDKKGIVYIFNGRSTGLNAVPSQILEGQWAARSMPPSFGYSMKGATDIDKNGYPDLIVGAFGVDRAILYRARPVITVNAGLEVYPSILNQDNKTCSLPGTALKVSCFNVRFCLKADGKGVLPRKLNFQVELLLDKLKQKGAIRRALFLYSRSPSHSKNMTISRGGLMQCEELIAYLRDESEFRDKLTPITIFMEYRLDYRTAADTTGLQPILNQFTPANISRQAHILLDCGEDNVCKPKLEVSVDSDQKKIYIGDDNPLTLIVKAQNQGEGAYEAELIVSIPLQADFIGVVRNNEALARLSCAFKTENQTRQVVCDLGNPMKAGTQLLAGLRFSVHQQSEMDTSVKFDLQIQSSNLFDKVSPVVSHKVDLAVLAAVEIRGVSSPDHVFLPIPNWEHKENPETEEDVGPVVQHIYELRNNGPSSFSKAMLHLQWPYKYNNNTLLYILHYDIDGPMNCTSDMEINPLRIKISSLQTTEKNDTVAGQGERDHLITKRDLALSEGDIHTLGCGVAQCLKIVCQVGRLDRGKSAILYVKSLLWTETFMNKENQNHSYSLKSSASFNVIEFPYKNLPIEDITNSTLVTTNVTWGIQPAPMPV
Chain of human αVβ5 (P18084 24-719 limits assumed): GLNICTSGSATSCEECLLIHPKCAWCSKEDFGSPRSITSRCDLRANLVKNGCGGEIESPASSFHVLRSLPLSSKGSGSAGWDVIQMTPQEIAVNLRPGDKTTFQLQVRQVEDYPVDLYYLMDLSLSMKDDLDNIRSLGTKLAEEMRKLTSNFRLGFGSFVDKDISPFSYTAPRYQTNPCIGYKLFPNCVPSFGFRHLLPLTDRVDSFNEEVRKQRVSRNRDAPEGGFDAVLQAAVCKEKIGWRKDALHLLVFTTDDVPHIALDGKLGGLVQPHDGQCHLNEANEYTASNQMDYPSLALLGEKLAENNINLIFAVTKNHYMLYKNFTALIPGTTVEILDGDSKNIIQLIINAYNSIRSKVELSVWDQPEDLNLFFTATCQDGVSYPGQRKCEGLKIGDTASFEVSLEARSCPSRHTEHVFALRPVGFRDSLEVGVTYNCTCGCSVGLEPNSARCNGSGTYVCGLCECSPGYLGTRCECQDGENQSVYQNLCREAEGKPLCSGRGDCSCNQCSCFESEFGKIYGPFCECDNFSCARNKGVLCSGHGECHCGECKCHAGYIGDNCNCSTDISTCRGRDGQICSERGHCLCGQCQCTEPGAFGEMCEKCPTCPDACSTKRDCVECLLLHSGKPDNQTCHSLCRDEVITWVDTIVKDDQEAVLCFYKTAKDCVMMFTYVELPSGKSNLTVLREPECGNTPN
Chain of human αVβ3 (P06756 31-992 limits assumed): as the sequence (P06756 31-992 limits assumed) above
Chain of human αVβ3 (P05106 27-718 limits assumed): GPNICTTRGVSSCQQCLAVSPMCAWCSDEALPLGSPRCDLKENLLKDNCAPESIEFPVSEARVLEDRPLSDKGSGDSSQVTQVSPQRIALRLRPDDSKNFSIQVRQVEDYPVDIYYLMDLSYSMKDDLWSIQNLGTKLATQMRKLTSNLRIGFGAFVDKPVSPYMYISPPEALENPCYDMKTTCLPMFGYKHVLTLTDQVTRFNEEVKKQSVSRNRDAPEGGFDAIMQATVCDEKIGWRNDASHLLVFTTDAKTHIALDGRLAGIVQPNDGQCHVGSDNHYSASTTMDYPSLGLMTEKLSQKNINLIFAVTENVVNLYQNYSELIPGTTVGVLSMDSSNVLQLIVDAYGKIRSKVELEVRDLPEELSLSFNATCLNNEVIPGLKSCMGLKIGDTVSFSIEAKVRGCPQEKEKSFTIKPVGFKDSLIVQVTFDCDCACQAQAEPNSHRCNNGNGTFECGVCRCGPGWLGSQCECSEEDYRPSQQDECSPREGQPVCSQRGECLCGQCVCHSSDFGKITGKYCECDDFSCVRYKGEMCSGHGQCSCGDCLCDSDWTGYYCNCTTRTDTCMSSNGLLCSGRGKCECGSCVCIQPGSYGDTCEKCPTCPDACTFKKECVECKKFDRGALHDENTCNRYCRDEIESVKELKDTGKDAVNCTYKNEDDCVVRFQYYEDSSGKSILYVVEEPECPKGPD
Chain of human αVβ8 (P06756 31-992 limits assumed): as the sequence (P06756 31-992 limits assumed) above
Chain of human αVβ8 (P26012 43-684 limits assumed): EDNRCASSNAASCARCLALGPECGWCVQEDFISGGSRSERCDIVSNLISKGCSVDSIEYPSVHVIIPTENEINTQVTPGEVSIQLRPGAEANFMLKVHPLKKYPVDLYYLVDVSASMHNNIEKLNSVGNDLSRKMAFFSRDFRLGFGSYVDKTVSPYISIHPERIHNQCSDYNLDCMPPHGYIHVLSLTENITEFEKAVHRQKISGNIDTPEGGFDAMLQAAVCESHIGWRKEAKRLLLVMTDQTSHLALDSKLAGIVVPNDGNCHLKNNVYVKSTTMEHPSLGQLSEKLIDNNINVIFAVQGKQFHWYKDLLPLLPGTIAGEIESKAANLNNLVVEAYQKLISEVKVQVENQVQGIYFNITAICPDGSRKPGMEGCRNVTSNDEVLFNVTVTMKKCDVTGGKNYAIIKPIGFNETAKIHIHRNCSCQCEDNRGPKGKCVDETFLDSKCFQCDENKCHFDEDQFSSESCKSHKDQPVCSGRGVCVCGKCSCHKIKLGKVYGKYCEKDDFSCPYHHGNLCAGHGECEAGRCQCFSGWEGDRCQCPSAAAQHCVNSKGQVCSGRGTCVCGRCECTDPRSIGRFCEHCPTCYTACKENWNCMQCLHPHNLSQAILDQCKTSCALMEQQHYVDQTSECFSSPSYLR
Chain of human αVβ1 (P06756 31-992 limits assumed): as the sequence (P06756 31-992 limits assumed) above
Chain of human αVβ1 (P05556 21-728 limits assumed): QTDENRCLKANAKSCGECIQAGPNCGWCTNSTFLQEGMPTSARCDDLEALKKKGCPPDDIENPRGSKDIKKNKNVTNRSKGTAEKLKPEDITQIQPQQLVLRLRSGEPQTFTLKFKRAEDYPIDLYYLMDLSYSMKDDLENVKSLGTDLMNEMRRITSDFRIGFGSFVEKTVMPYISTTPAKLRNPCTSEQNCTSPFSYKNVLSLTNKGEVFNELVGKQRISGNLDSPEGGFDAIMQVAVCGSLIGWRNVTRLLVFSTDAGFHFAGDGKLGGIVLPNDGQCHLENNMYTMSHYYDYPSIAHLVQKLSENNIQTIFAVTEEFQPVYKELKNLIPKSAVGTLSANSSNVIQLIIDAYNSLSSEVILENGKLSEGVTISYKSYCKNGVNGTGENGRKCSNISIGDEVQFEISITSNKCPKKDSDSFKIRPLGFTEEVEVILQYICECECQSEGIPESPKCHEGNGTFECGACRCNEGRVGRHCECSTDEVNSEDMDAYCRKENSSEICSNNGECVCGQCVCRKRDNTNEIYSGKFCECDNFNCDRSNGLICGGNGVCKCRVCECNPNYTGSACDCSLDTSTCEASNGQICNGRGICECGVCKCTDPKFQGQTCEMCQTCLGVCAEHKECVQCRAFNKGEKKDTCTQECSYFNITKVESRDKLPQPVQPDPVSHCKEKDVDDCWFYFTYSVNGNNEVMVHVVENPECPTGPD
T1 sequence (P06756 31-992 limits assumed): as the sequence (P06756 31-992 limits assumed) above
T1 sequence (P18564 22-707 limits assumed): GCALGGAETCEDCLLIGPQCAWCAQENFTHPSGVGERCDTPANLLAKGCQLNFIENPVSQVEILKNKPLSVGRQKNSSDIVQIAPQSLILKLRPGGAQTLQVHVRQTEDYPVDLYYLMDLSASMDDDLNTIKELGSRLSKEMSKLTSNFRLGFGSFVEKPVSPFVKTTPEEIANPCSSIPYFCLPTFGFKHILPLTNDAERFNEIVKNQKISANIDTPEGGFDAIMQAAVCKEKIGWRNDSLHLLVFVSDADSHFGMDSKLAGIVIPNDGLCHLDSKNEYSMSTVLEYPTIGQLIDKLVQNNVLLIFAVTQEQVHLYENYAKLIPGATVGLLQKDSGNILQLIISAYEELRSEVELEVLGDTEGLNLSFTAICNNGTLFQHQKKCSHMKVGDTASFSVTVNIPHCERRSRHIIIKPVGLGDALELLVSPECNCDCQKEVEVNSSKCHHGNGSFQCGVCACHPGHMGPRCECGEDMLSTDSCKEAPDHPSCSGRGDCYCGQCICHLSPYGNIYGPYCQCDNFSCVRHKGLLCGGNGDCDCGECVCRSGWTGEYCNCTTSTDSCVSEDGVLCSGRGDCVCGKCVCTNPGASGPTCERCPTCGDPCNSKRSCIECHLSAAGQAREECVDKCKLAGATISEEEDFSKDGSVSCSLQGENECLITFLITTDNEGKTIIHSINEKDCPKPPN

IC50 [1] [nM]	IC50 [2] [nM]	IC50 [3] [nM]	IC50 [4] [nM]	IC50 [5] [nM]	Molecule
2.7	190	0.87	150	1	O=C(O)C[C@H](NC(=O)[C@H]1C[C@H](CCc2ccc3c(n2)NCCC3)C1)c1ccc2c(c1)OCC2 [Example 88]
1.5	250	2.2			O=C(O)C[C@H](NC(=O)[C@H]1C[C@@H](CCc2ccc3c(n2)NCCC3)C1)c1ccc2c(c1)OCC2 [Example 89]
2	82	0.54	48	0.01	O=C(N[C@@H](CNC(=O)[C@H]1C[C@@H](CCc2ccc3c(n2)NCCC3)C1)C(=O)O)OCc1ccccc1 [Example 77]
2.7	790	1.5			Cc1ncc([C@H](CC(=O)O)NC(=O)[C@H]2C[C@H](CCc3ccc4c(n3)NCCC4)C2)cn1 [Example 86]
2.8	410	2.22	184	9.4	COc1ccc([C@H](CC(=O)O)NC(=O)N2CC(CCc3ccc4c(n3)NCCC4)C2)cc1F [Example 63]
2.1	140	0.68	330		O=C(O)C[C@H](NC(=O)[C@H]1C[C@@H](CCc2ccc3c(n2)NCCC3)C1)c1cnc2ccccc2c1 [Example 85]
4.7	84	0.62	60	41	O=C(O)C[C@H](NC(=O)[C@H]1C[C@H](CCc2ccc3c(n2)NCCC3)C1)c1cnc2ccccc2c1 [Example 84]
120	1100	1.7	520		O=C(O)C[C@H](NC(=O)[C@H]1C[C@H](CCc2ccc3c(n2)NCCC3)C1)c1cncnc1 [Example 90]
	11	0.58			COc1ccc([C@H](CC(=O)O)N2CC(CCCCc3ccc4c(n3)NCCC4)C2)cc1F [Example 27, (S)-3-(3-Fluoro-4-methoxyphenyl)-3-(3-(4-(5,6,7,8-tetrahydro-1,8-naphthyridin-2-yl)butyl)azetidin-1-yl)propanoic acid]
3.8	9.4	0.76		2	Cc1cc(C)c(S(=O)(=O)N[C@@H](CNC(=O)C2CN(CCc3ccc4c(n3)NCCC4)C2)C(=O)O)c(C)c1 [Example 36]
1.76		1.11	8630	2	Cc1ncc([C@H](CC(=O)O)N2CC(CCCCc3ccc4c(n3)NCCC4)C2)cn1 [Example 26, (S)-3-(2-Methylpyrimidin-5-yl)-3-(3-(4-(5,6,7,8-tetrahydro-1,8-naphthyridin-2-yl)butyl)azetidin-1-yl)propanoic acid]
		5.6			O=C(O)CC(c1cnc2ccccc2c1)N1CC(OCCCc2ccc3c(n2)NCCC3)C1 (stereo not shown) [Example 133]
		0.8			O=C(N[C@@H](COC1CN(CCCc2ccc3c(n2)NCCC3)C1)C(=O)O)OCc1ccccc1 [Example 10, N-((Benzyloxy)carbonyl)-O-(1-(3-(5,6,7,8-tetrahydro-1,8-naphthyridin-2-yl)propyl)azetidin-3-yl)-L-serine]
		4			O=C(C[C@H](NC(=O)OCc1ccccc1)C(=O)O)NC1CC(CCc2ccc3c(n2)NCCC3)C1 (stereo partly shown) [Example 64]
		2			COc1ccc([C@H](CC(=O)O)N2CC(c3ccc(-c4ccc5c(n4)NCCC5)cc3)C2=O)cn1 (single isomer, unassigned) [Example 183]
		2.4			COc1ccc([C@H](CC(=O)O)N2CC(F)(CCCCc3ccc4c(n3)NCCC4)C2)cn1 [Example 163]
		3300			COc1ccc(C(NC(=O)C2CC(CCc3ccc4c(n3)NCCC4)C2)C(C)(C)C(=O)O)cn1 (single isomer, unassigned) [Example 190, 3-(6-methoxypyridin-3-yl)-2,2-dimethyl-3-(3-(2-(5,6,7,8-tetrahydro-1,8-naphthyridin-2-yl)ethyl)cyclobutane-1-carboxamido)propanoic acid]
		0.7			Cc1cc(C)c(S(=O)(=O)N[C@@H](CNC(=O)C2CN(CCCc3ccc4c(n3)NCCC4)C2)C(=O)O)c(C)c1 [Example 14, (S)-3-(1-(3-(5,6,7,8-Tetrahydro-1,8-naphthyridin-2-yl)propyl)azetidine-3-carboxamido)-2-(2,4,6-trimethylphenylsulfonamido)propanoic acid]
		2.4			COc1ccc(C(CC(=O)O)N2CC3(CC(Cc4ccc5c(n4)NCCC5)C3)C2)cn1 (stereo not shown) [Example 208, 3-(6-methoxypyridin-3-yl)-3-(6-((5,6,7,8-tetrahydro-1,8-naphthyridin-2-yl)methyl)-2-azaspiro[3.3]heptan-2-yl)propanoic acid]
		1.1			COc1ccc([C@H](CC(=O)O)N2CC(C)(CCCCc3ccc4c(n3)NCCC4)C2)cc1F [Example 158, (S)-3-(3-fluoro-4-methoxyphenyl)-3-(3-methyl-3-(4-(5,6,7,8-tetrahydro-1,8-naphthyridin-2-yl)butyl)azetidin-1-yl)propanoic acid]

IC50 [1] [nM]	IC50 [2] [nM]	IC50 [3] [nM]	IC50 [4] [nM]	IC50 [5] [nM]	Molecule
		9.9			O=C(O)CC(c1cnc2ccccc2c1)C1CN(CCCCc2ccc3c(n2)NCCC3)C1 (stereo not shown) [Example 142]
		8.4			COc1ccc([C@H](CC(=O)O)NC(=O)C2CC3(C2)CN(CCc2ccc4c(n2)NCCC4)C3)cc1F [Example 39]
		3.3			Cc1ncc(C(CC(=O)O)N2CC3(CC(CCc4ccc5c(n4)NCCC5)C3)C2)cn1 (stereo not shown) [Example 206]
		3.2			COc1ccc(C(CC(=O)O)C2CC(CCCCc3ccc4c(n3)NCCC4)C2)cn1 (stereo not shown) [Example 138, 3-(6-Methoxypyridin-3-yl)-3-(3-(4-(5,6,7,8-tetrahydro-1,8-naphthyridin-2-yl)butyl)cyclobutyl)propanoic acid]
		0.6			COc1ccc([C@H](CC(=O)O)NC(=O)C2(F)CN(CCc3ccc4c(n3)NCCC4)C2)cn1 [Example 46]
		13			COc1ccc([C@H](CC(=O)O)NC(=O)C2CC3(C2)CN(CCc2ccc4c(n2)NCCC4)C3)cn1 [Example 2, (S)-3-(6-Methoxypyridin-3-yl)-3-(2-(2-(5,6,7,8-tetrahydro-1,8-naphthyridin-2-yl)ethyl)-2-azaspiro[3.3]heptane-6-carboxamido)propanoic acid, 3TFA]
		0.6			COc1ccc([C@H](CC(=O)O)NC(=O)C2(F)CN(CCc3ccc4c(n3)NCCC4)C2)cc1F [Example 44]
		4.3			COc1ncc([C@H](CC(=O)O)NC(=O)N2CC(CCc3ccc4c(n3)NCCC4)C2)cn1 [Example 123]
		110			COc1ccc([C@H](CC(=O)O)NC(=O)C2CC3(CC(CCc4ccc5c(n4)NCCC5)C3)C2)cn1 (mixture of isomers) [Example 50]
		1.5			CC1(CCCCc2ccc3c(n2)NCCC3)CN([C@@H](CC(=O)O)c2cnc3ccccc3c2)C1 [Example 159]
2.1	15	0.33		0.44	Cc1cc(C)c(S(=O)(=O)N[C@@H](CNC(=O)[C@H]2C[C@@H](CCc3ccc4c(n3)NCCC4)C2)C(=O)O)c(C)c1 [Example 51]
		3.6			COc1ccc([C@H](CC(=O)O)N2CC(CCCCc3ccc4c(n3)NCCC4)C2)cn1 [Example 151]
		2.9			O=C(O)C[C@H](NC(=O)[C@H]1C[C@@H](CCc2ccc3c(n2)NCCC3)C1)c1cncnc1 [Example 91]
		2.4			COc1ccc(C(CC(=O)O)C2CC3(C2)CN(CCc2ccc4c(n2)NCCC4)C3)cn1 (stereo not shown) [Example 100]
		3			COc1ccc([C@H](CC(=O)O)NC(=O)C2CC(C(Cc3ccc4c(n3)NCCC4)NS(=O)(=O)c3ccc(C)cc3)C2)cc1F (stereo partly drawn) [Example 25, (3S)-3-(3-Fluoro-4-methoxyphenyl)-3-(3-(1-(4-methylphenylsulfonamido)-2-(5,6,7,8-tetrahydro-1,8-naphthyridin-2-yl)ethyl)cyclobutanecarboxamido)propanoic acid]
		1.9			CCCOC(=O)N[C@@H](CNC(=O)[C@H]1C[C@@H](Cc2ccc3c(n2)NCCC3)C1)C(=O)O [Example 198]
		4.9			O=C(O)CC(c1ccc(N2CCOCC2)nc1)C1CC2(CC(CCc3ccc4c(n3)NCCC4)C2)C1 (stereo not shown) [Example 144]
		64			O=C(N[C@@H](CC(=O)N1CC(CCc2ccc3c(n2)NCCC3)C1)C(=O)O)OCc1ccccc1 [Example 7, (S)-2-(((Benzyloxy)carbonyl)amino)-4-oxo-4-(3-(2-(5,6,7,8-tetrahydro-1,8-naphthyridin-2-yl)ethyl)azetidin-1-yl)butanoic acid]
2.4	110	2.23	329		O=C(O)C[C@@H](c1ccc2c(c1)OCC2)N1CC(CCCCc2ccc3c(n2)NCCC3)C1=O (stereo partly shown) [Example 104]

Molecule	IC50 [1] [nM]	IC50 [2] [nM]	IC50 [3] [nM]	IC50 [4] [nM]	IC50 [5] [nM]
(S)-Ethyl 3-(6-methoxypyridin-3-yl)-3-(1-methyl-3-(2-(5,6,7,8-tetrahydro-1,8-naphthyridin-2-yl)ethyl)cyclobutanecarboxamido)propanoate [Example 15]			5.2		
